Results: patent US9975893B2, “Pyrazolo[3,4-c]pyridine derivatives” (CSPC ZHONGQI PHARMACEUTICAL TECHNOLOGY (SHIJIAZHUANG) CO., …, priority 2014, dated 2018)

Columns and labels:
[1] = biological target: T1, Factor Xa (Homo sapiens, UniProt P00742); test: Anti-Factor Xa activity assay (chromogenic substrate CS-11(22)); format: biochemical; details: ratio of compound IC50 to apixaban IC50; Factor Xa 0.1 U/ml, absorbance at 405 nm, 37° C.
T1 construct: purchased MERK
Method: I. Anti-Factor Xa Activity Assay
Substrate: CS-1122 (Hyphen)
Buffer: 50 mM TrisHCl, 150 mM NaCl, PH8.3
100 μL of buffer, 50 μL of different concentrations of compounds (diluted with buffer) and 50 μl of 0.1 U/ml Factor Xa enzyme (diluted with buffer) were added to a 96-well plate. After 15 min of exposure, 50 μL of chromogenic substrate 2.5 mg/ml CS-11 (22) was added. The substrate hydrolysis was monitored by measuring absorbance at 405 nm at 37° C. for up to 30 min (interval: 30 seconds) using a microplate spectrophotometer. IC50 was calculated by bliss.

[2] = system: Male SD rats; test: Rat tail bleeding model; format: in vivo; details: rat tail transected 0.5 to 4 hours after administration; prolongation = ratio of treated vs. mean vehicle value; relative to apixaban
Method: II Rat Tail Bleeding Model
Male SD rats were allocated randomly and administrated. After the administration, the rats were anesthetized by intraperitoneal injection of 10% chloral hydrate. At the time point of 0.5 to 4 hours (Tmax in PK) after the administration, the tails of anesthetized rats were transected 3 mm from the tip and vertically immersed in saline at 37° C. The time point when the continuous blood flow ceased for >30 s was measured. The prolongation of bleeding time was expressed as a ratio of treated vs. the mean vehicle value. Effects of compounds were determined as described below.

[3] = system: Male SD rats; test: Arteriovenous shunt model in rats; format: in vivo, rat; design: concentration or dose not given beside the values; details: rats given orally 2-4 hours before shunt opened; shunt 15 minutes; thrombus weight, treated vs. mean vehicle
Source text: III. Arteriovenous Shunt Model in Rats
Two 10 cm-long polyethylene tubings (1.50 and 2.88 mm of inner and outer diameter, respectively) linked to a central part (8 cm-long, 2.11 and 3.77 mm of inner and outer diameter, respectively) containing a 6 cm silk thread and filled with heparin (3.125 U/ml) were placed between the right carotid artery and the left jugular vein in rats.
Male SD rats were anesthetized by intraperitoneal injection of 10% chloral hydrate after oral dose, inverted fixation, then the right catotid artery and left vena jugularis externa were isolated, the proximal and distal sutures of catotid artery were tied. The syringe needle were cannulated into the catotid artery and fasted, the other of the tube was cannulated into the right vena jugularis externa. Rats were given orally 2-4 hours before the shunt was opened. Blood flowed from the right carotid artery into the polyethylene tubing and then return to left vena jugularis externa. The shunt was then disconnected 15 minutes later and the silk thread covered with thrombus was immediately withdrawn and weighed. The wet weight of the thrombus was determined. Then the silk thread was dried at 60° C. for 4 h to get the dry weight of the thrombus. The anti-thrombotic effects of these agents were expressed as percentage inhibition of thrombus formation based on the treated vs. the corresponding mean vehicle.

T1 sequence (P00742 235-488 limits assumed): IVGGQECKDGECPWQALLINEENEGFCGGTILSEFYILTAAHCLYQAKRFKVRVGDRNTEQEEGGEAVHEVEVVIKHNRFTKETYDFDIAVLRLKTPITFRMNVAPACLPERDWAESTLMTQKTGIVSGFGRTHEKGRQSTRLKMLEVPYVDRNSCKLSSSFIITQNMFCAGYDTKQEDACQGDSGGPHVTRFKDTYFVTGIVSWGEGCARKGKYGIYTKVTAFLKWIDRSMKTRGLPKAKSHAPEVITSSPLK
T1 sequence (P00742 41-179 partner limits assumed): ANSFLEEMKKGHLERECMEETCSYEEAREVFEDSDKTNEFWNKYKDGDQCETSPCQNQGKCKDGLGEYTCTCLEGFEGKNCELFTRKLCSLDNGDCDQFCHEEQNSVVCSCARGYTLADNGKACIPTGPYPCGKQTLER

Structure (SMILES)	IC50(Compound)/IC50(apixaban) [1]	The Prolongation of bleeding time (compound)/The Prolongation of bleeding time(apixaban) [2]	Inhibition of thrombus formation (%) [3]
CCOc1ccc(-n2nc(C(N)=O)c3c2C(=O)N(c2ccc(N4CCCC4=O)c(C)c2)CC3)cc1 [A 35, 1-(4-ethoxyphenyl)-6-(3-methyl-4-(2-oxopyrrolidin-1-yl)phenyl)-7-oxo-4,5,6,7-tetrahydro-1H-pyrazolo[3,4-c]pyridine-3-carboxamide]	<2	<1	–
CCOc1ccc(-n2nc(C(N)=O)c3c2C(=O)N(c2ccc(N4CCCCC4=O)c(C)c2)CC3)cc1 [A 31, 1-(4-ethoxyphenyl)-6-(3-methyl-4-(2-oxopiperidin-1-yl)phenyl)-7-oxo-4,5,6,7-tetrahydro-1H-pyrazolo[3,4-c]pyridine-3-carboxamide]	<1	<1	71.5%
CCOc1ccc(-n2nc(C(N)=O)c3c2C(=O)N(c2ccc(N4CCCCC4=O)cc2)CC3)cc1Cl [A 29, 1-(3-chloro-4-ethoxyphenyl)-6-(4-(2-oxopiperidin-1-yl)phenyl)-7-oxo-4,5,6,7-tetrahydro-1H-pyrazolo[3,4-c]pyridine-3-carboxamide]	<2	<1	67.4%
COc1ccc(-n2nc(C(N)=O)c3c2C(=O)N(c2ccc(N4CCCCC4=O)c(C)c2)CC3)cc1 [A 16, 1-(4-methoxyphenyl)-6-(3-methyl-4-(2-oxopiperidin-1-yl)phenyl)-7-oxo-4,5,6,7-tetrahydro-1H-pyrazolo[3,4-c]pyridine-3-carboxamide]	<1	–	–
COc1ccc(-n2nc(C(N)=O)c3c2C(=O)N(c2ccc(N4CCOCC4=O)c(C)c2)CC3)cc1 [A 17, 1-(4-methoxyphenyl)-6-(3-methyl-4-(3-oxomorpholino)phenyl)-7-oxo-4,5,6,7-tetrahydro-1H-pyrazolo[3,4-c]pyridine-3-carboxamide]	<1	–	–
CCOc1ccc(-n2nc(C(N)=O)c3c2C(=O)N(c2ccc(N4CCOCC4=O)c(C)c2)CC3)cc1 [A 33, 1-(4-ethoxyphenyl)-6-(3-methyl-4-(3-oxomorpholino)phenyl)-7-oxo-4,5,6,7-tetrahydro-1H-pyrazolo[3,4-c]pyridine-3-carboxamide]	<1	<1	60.8%
CCOc1ccc(-n2nc(C(N)=O)c3c2C(=O)N(c2ccc(-n4cccc(C)c4=O)cc2)CC3)cc1F [A 27, 1-(3-fluoro-4-ethoxyphenyl)-6-(4-(3-methyl-2-oxopyridin-1(2H)-yl)phenyl)-7-oxo-4,5,6,7-tetrahydro-1H-pyrazolo[3,4-c]pyridine-3-carboxamide]	<2	<1	68.7%
CCOc1ccc(-n2nc(C(N)=O)c3c2C(=O)N(c2ccc(-n4cccc(C)c4=O)cc2)CC3)cc1Cl [A 30, 1-(3-chloro-4-ethoxyphenyl)-6-(4-(3-methyl-2-oxopyridin-1(2H)-yl)phenyl)-7-oxo-4,5,6,7-tetrahydro-1H-pyrazolo[3,4-c]pyridine-3-carboxamide]	<2	<1	–
CCOc1ccc(-n2nc(C(N)=O)c3c2C(=O)N(c2ccc(-n4ccccc4=O)c(C)c2)CC3)cc1 [A 37, 1-(4-ethoxyphenyl)-6-(3-methyl-4-(2-oxopyridin-1(2H)-yl)phenyl)-7-oxo-4,5,6,7-tetrahydro-1H-pyrazolo[3,4-c]pyridine-3-carboxamide]	<1	<1	63.7%
COc1ccc(-n2nc(C(N)=O)c3c2C(=O)N(c2ccc(-n4ccccc4=O)c(C)c2)CC3)cc1 [A 19, 1-(4-methoxyphenyl)-6-(3-methyl-4-(2-oxopyridin-1(2H)-yl)phenyl)-7-oxo-4,5,6,7-tetrahydro-1H-pyrazolo[3,4-c]pyridine-3-carboxamide]	<1	–	–
CCOc1ccc(-n2nc(C(N)=O)c3c2C(=O)N(c2ccc(N4CCOCC4=O)c(C)c2)CC3)cc1F [A 34, 1-(3-fluoro-4-ethoxyphenyl)-6-(3-methyl-4-(3-oxomorpholino)phenyl)-7-oxo-4,5,6,7-tetrahydro-1H-pyrazolo[3,4-c]pyridine-3-carboxamide]	<1	<1	62.5%
CCOc1ccc(-n2nc(C(N)=O)c3c2C(=O)N(c2ccc(N4CCCCC4=O)c(C)c2)CC3)cc1F [A 32, 1-(3-fluoro-4-ethoxyphenyl)-6-(3-methyl-4-(2-oxopiperidin-1-yl)phenyl)-7-oxo-4,5,6,7-tetrahydro-1H-pyrazolo[3,4-c]pyridine-3-carboxamide]	<1	<1	61.4%
COc1ccc(-n2nc(C(N)=O)c3c2C(=O)N(c2ccc(N4CCSCC4=O)cc2)CC3)cc1 [A 3, 1-(4-methoxyphenyl)-6-(4-(3-oxothiomorpholino)phenyl)-7-oxo-4,5,6,7-tetrahydro-1H-pyrazolo[3,4-c]pyridine-3-carboxamide]	<1	–	–

Continued, in another order:

IC50(Compound)/IC50(apixaban) [1]	The Prolongation of bleeding time (compound)/The Prolongation of bleeding time(apixaban) [2]	Structure (SMILES)	Inhibition of thrombus formation (%) [3]
<1	<1	CCOc1ccc(-n2nc(C(N)=O)c3c2C(=O)N(c2ccc(-n4ccccc4=O)c(C)c2)CC3)cc1F [A 38, 1-(3-fluoro-4-ethoxyphenyl)-6-(3-methyl-4-(2-oxopyridin-1(2H)-yl)phenyl)-7-oxo-4,5,6,7-tetrahydro-1H-pyrazolo[3,4-c]pyridine-3-carboxamide]	70.5%
<1	–	COc1ccc(-n2nc(C(N)=O)c3c2C(=O)N(c2ccc(N4CCCCC4=O)c(C)c2)CC3)cc1F [A 47, 1-(3-fluoro-4-methoxyphenyl)-6-(3-methyl-4-(2-oxopiperidin-1-yl)phenyl)-7-oxo-4,5,6,7-tetrahydro-1H-pyrazolo[3,4-c]pyridine-3-carboxamide]	–
<1	<1	CCOc1ccc(-n2nc(C(N)=O)c3c2C(=O)N(c2ccc(-n4cccc(C)c4=O)c(C)c2)CC3)cc1F [A 40, 1-(3-fluoro-4-ethoxyphenyl)-6-(3-methyl-4-(3-methyl-2-oxopyridin-1(2H)-yl)phenyl)-7-oxo-4,5,6,7-tetrahydro-1H-pyrazolo[3,4-c]pyridine-3-carboxamide]	63.4%
<1	<1	CCOc1ccc(-n2nc(C(N)=O)c3c2C(=O)N(c2ccc(-n4cccc(C)c4=O)c(C)c2)CC3)cc1 [A 39, 1-(4-ethoxyphenyl)-6-(3-methyl-4-(3-methyl-2-oxopyridin-1(2H)-yl)phenyl)-7-oxo-4,5,6,7-tetrahydro-1H-pyrazolo[3,4-c]pyridine-3-carboxamide]	64.5%
<1	–	COc1ccc(-n2nc(C(N)=O)c3c2C(=O)N(c2ccc(-n4cccc(C)c4=O)c(C)c2)CC3)cc1F [A 51, 1-(3-fluoro-4-methoxyphenyl)-6-(3-methyl-4-(3-methyl-2-oxopyridin-1(2H)-yl)phenyl)-7-oxo-4,5,6,7-tetrahydro-1H-pyrazolo[3,4-c]pyridine-3-carboxamide]	–
<1	–	COc1ccc(-n2nc(C(N)=O)c3c2C(=O)N(c2ccc(N4CCOCC4=O)c(C)c2)CC3)cc1F [A 48, 1-(3-fluoro-4-methoxyphenyl)-6-(3-methyl-4-(3-oxomorpholino)phenyl)-7-oxo-4,5,6,7-tetrahydro-1H-pyrazolo[3,4-c]pyridine-3-carboxamide]	–
<1	–	COc1ccc(-n2nc(C(N)=O)c3c2C(=O)N(c2ccc(-n4ccccc4=O)c(C)c2)CC3)cc1F [A 50, 1-(3-fluoro-4-methoxyphenyl)-6-(3-methyl-4-(2-oxopyridin-1(2H)-yl)phenyl)-7-oxo-4,5,6,7-tetrahydro-1H-pyrazolo[3,4-c]pyridine-3-carboxamide]	–
